The NIST ThermoML archive (doi:10.1016/j.fluid.2005.04.003)
Numbers after ± are expanded uncertainties.

Legend:
[1] = Liquid; for mass density: 298.15 K, 101.33 kPa
[2] = refractive index (Na D-line) (dimensionless); details: 298.15 K; 101.33 kPa; Liquid; Standard Abbe refractometry

| mass density [1] [kg/m3] | Normal boiling temperature [1] [°C] | refractive index [2] | Structure (SMILES) |
| --- | --- | --- | --- |
| 760.57 ± 0.66 | 101.42 ± 0.08 | 1.38857 ± 0.00072 | CCOC(C)(C)CC [1,1-dimethylpropyl ethyl ether] |
| 785.22 ± 0.64 | 78.29 ± 0.08 | 1.3592 ± 0.00073 | CCO [ethanol] |
| 786.63 ± 0.63 | 64.4 ± 0.08 | 1.3264 ± 0.0007 | CO [methanol] |
